Data reported in US9102648B1, “Bioavailable diacylhydrazine ligands for modulating the expression of exogenous genes via an ecdysone receptor complex” (Intrexon Corporation, priority 2003, dated 2015).
Read-outs that look alike come from different tables or passages of the source.

How the values were obtained:
[1] = target: T1, Bombyx mori EcR (VP16 fusion, CVBE switch construct) (Bombyx mori, UniProt P49881); assay: Z3 Assay (HEK-293 cells with CVBE and 6XEcRE LacZ, β-galactosidase reporter); conditions: for Fold Induction, Z3 Assay, 3.3 uM: 3.3 uM ligand; for Fold Induction, Z3 Assay, 3.3 uM / Fold Induction, Z3 Assay, 33 uM: ligand treated / DMSO treated cells; for Fold Induction, Z3 Assay, 33 uM: 33 uM ligand; for Z3 assay Rel Max FI: maximum fold induction at any concentration relative to that of GS-E ligand; for fold induction at 3.3 µM: HEK293, read-out: Fold Induction, Z3 Assay, 3.3 uM; for fold induction at 33 µM: HEK293, read-out: Fold Induction, Z3 Assay, 33 uM
T1 sequence (P49881 86-606): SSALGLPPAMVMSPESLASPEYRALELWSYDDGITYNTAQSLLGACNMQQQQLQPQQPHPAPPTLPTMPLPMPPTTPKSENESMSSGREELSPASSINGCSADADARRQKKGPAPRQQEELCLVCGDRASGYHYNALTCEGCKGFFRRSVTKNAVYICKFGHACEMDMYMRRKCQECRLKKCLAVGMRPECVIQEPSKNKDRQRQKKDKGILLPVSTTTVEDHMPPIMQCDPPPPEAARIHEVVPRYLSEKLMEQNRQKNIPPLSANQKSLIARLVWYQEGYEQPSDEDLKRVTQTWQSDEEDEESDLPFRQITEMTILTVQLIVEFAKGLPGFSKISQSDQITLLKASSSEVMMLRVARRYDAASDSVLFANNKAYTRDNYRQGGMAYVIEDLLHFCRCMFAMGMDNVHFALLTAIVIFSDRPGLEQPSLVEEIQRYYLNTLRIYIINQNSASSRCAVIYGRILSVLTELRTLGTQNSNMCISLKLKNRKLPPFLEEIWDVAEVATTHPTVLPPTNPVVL
T1 sequence (P19793 1-462 partner): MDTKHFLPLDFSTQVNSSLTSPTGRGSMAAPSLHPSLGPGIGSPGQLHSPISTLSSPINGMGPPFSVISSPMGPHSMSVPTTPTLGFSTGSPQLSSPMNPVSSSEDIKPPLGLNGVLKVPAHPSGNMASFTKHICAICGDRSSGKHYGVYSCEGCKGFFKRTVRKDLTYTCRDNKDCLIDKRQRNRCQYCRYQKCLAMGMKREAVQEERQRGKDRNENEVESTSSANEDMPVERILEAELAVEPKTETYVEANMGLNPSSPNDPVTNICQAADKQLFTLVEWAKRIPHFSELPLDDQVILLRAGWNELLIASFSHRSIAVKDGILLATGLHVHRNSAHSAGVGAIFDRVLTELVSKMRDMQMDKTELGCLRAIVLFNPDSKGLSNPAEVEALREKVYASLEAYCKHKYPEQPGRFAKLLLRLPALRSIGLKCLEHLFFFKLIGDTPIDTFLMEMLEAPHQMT

[2] = target: GAL4 DBD-CfEcR(DEF)/VP16AD-MmRXRE (Choristoneura fumiferana, UniProt O77240); assay: 13B3 Assay (CHO stable cell line, luciferase reporter); conditions: for Fold Induction, 13B3 Assay, 33 uM: 33 uM ligand; for Fold Induction, 13B3 Assay, 33 uM / Fold Induction, 13B3 Assay, 3.3 uM: RLU ligand treated / RLU DMSO treated cells; for Fold Induction, 13B3 Assay, 3.3 uM: 3.3 uM ligand; for 13B3 assay Rel Max FI: maximum fold induction at any concentration relative to that of GS-E ligand, CHO 13B3 cells; for fold induction at 3.3 µM: read-out: Fold Induction, 13B3 Assay, 3.3 uM; for fold induction at 33 µM: read-out: Fold Induction, 13B3 Assay, 33 uM
Method in brief: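 CHO 13B3 clone stably expressing GAL4 DBD–CfEcR(DEF) and VP16AD–MmRXR(DE) with GAL4 RE–luciferase reporter; cells plated 24 h at 37 °C, then treated with ligands (DMSO stocks diluted 300-fold), 8 concentrations 33–0.01 μM.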

[3] = read-out: Z3 assay EC50, HEK-293 Z3 cells, β-galactosidase reporter, average of two wells
[4] = read-out: 13B3 EC50, CHO 13B3 stable cell line, luciferase reporter, 48 h, average of two wells

SMILES	Fold Induction, Z3 Assay, 3.3 uM ([1]; average of two wells)	Fold Induction, Z3 Assay, 33 uM ([1]; average of two wells)	Z3 assay Rel Max FI ([1]; HEK-293 Z3 cells)	EC50 [1, 3]	Fold Induction, 13B3 Assay, 33 uM ([2]; average of two wells)	Fold Induction, 13B3 Assay, 3.3 uM ([2]; average of two wells)	13B3 assay Rel Max FI [2]	EC50 [2, 4]	EC50 [1]	fold induction at 3.3 µM [1]	fold induction at 33 µM [1]	EC50 [2]	fold induction at 3.3 µM [2]	fold induction at 33 µM [2]
CCc1ccccc1C(=O)N(NC(=O)c1cccc(OC)c1C)C(C)(C)C [RG-101062]	1127	391	0.992	2.57 µM	319									
COc1ccc(C(=O)NN(C(=O)c2cc(Cl)cc(Cl)c2)C(C)(C)C)cc1 [RG-101376]	1293	415	0.777	0.537 µM	7393	25656	0.654	1.36 µM						
CCc1c(C(=O)NN(C(=O)c2cc(F)c(Cl)cc2Cl)C(C)(C)C)ccc2c1OCCO2 [RG-115684]		498			151									
CCc1c(OC)cccc1C(=O)NN(C(=O)c1cccc(F)c1)C(C)(C)C [RG-115515]	1306	420	0.975	0.617 µM	1996									
CCc1c(OC)cccc1C(=O)NN(C(=O)c1cc(OC)c(OC)c(OC)c1)C(C)(C)C [RG-115329]	259	430	0.892	2.57 µM	5644									
Cc1cc(C)cc(C(=O)N(NC(=O)c2cccc(OC(C)C)c2C)C(C)(C)C)c1 [RG-101670]	1190	929	0.853	0.468 µM	738	2297	0.874	0.646 µM						
CCc1c(OC)cccc1C(=O)NN(C(=O)c1ccccc1[N+](=O)[O-])C(C)(C)C [RG-115330]	633	432	0.860	0.186 µM	3577	1995	0.711	5.69 µM						
CCc1c(OC)cccc1C(=O)NN(C(=O)c1cccc(C#N)c1)C(C)(C)C [RG-115327]	279	325	0.662	2.75 µM	3785									
Cc1cc(C(=O)N(NC(=O)c2cccc(Cl)c2C)C(C)(C)C)ccc1Br [RG-101664]	6	1		21.1 µM		1	0.002	> 50 µM						
Cc1cc(C)cc(C(=O)N(NC(=O)c2cccc(I)c2C)C(C)(C)C)c1 [RG-101734]	987	951	0.988	0.145 µM	442	918								
CCc1c(C(=O)NN(C(=O)c2cccc(C(F)(F)F)c2)C(C)(C)C)ccc2c1OCO2 [RG-115260]		526			13									
COc1ccc(Cl)cc1C(=O)N(NC(=O)c1cccc(C)c1C)C(C)(C)C [RG-101178]	1200	431	0.887	1.32 µM	699									
CCc1c(C(=O)NN(C(=O)c2ccccc2OC)C(C)(C)C)ccc2c1OCO2 [RG-100698]	1089	591	1.025	1 µM	434									
COc1cccc(C(=O)NN(C(=O)c2cc(C)cc(C)c2)C(C)(C)C)c1CN(C)C [RG-115497, 3,5-dimethyl-benzoic acid N-tert-butyl-N′-(2-dimethylaminomethyl-3-methoxy-benzoyl)-hydrazide]			0.07				0		> 50 µM	1	20	> 50 µM	1	
CCc1c(OC)cccc1C(=O)NN(C(=O)c1cc(C)cc(C)c1)C(C)(C)C#N [RG-115043]	466	1588	0.943	0.178 µM	547	835	0.852	2.67 µM						
CCc1c(OC)cccc1C(=O)NN(C(=O)c1cc(C)nc(Cl)c1)C(C)(C)C [RG-100667]	1480	238	0.890	0.347 µM	1191									
CCc1c(OC)cccc1C(=O)NN(C(=O)c1cc(C)cc(C=NO)c1)C(C)(C)C [RG-115625]	265	1559	0.950	0.389 µM	715	3	0.931	25.3 µM						
C=CCOCc1c(OC)cccc1C(=O)NN(C(=O)c1cc(C)cc(C)c1)C(C)(C)C [RG-115003, 3,5-dimethyl-benzoic acid N′-(2-allyloxymethyl-3-methoxy-benzoyl)-N-tert-butyl-hydrazide]											1280			301
COc1cccc(C(=O)NN(C(=O)c2cc(Cl)nc(Cl)c2)C(C)(C)C)c1C [RG-100394]	1339	11		1.22 µM	178									
CCc1c(OC)cccc1C(=O)NN(C(=O)c1cc(C)cc(C)c1)C(C)(C)COC(C)=O [RG-115310]	199	960	0.781	2.63 µM	3044	2	0.676	> 50 µM						
COc1cccc(C(=O)NN(C(=O)c2cc(C)cc(C)c2)C(C)(C)C)c1COC(C)=O [RG-115225, 3,5-dimethyl-benzoic acid N-tert-butyl-N′-(2-acetoxymethyl-3-methoxy-benzoyl)-hydrazide]			0.32				0.08		> 50 µM	3	571	0.58 µM	3	8
COc1cccc(C(=O)NN(C(=O)c2cc(C)cc(C)c2)C(C)(C)C)c1CF [RG-115160]	3	157	0.21	> 50 µM	3	3	0	> 50 µM						
CCc1c(OC)cccc1C(=O)NN(C(=O)c1cccc(Br)c1)C(C)(C)C [RG-115038]	600	321	1.064	0.55 µM	4970	4119	1.172	1.74 µM						
CCC(N(NC(=O)c1cccc(C)c1C)C(=O)c1cccc(C)c1)C(C)(C)C (stereo not drawn) [RG-104074]	189	200	1.122	0.307 µM	5378	544	0.812	0.865 µM						
